# Patent US7550456B2, “Substituted aryl cycloalkanoyl derivatives and methods of their use” (Wyeth, priority 2003, dated 2009)
# Structures can show the parent of a compound that is named as a salt.
# Target: T1, human hNET (Homo sapiens, UniProt P23975)
# T1 construct: expressed in transfected cells; host or cells: MDCK-Net6 (MDCK cells, stably transfected)
# Experiment: Norepinephrine (NE) uptake assay in MDCK-Net6 cells
# Assay type: cell-based
# Settings: 1 μM test compound, [3H]NE uptake, read-out: % Inhibition @ 1 μM (hNET)
# Procedure, shortened: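 Radiolabelled NE uptake was counted by scintillation after NaOH lysis, with 1 µM desipramine defining non-specific uptake. EC50 came from a logistic dose-response fit.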
# T1 sequence (P23975 whole entry): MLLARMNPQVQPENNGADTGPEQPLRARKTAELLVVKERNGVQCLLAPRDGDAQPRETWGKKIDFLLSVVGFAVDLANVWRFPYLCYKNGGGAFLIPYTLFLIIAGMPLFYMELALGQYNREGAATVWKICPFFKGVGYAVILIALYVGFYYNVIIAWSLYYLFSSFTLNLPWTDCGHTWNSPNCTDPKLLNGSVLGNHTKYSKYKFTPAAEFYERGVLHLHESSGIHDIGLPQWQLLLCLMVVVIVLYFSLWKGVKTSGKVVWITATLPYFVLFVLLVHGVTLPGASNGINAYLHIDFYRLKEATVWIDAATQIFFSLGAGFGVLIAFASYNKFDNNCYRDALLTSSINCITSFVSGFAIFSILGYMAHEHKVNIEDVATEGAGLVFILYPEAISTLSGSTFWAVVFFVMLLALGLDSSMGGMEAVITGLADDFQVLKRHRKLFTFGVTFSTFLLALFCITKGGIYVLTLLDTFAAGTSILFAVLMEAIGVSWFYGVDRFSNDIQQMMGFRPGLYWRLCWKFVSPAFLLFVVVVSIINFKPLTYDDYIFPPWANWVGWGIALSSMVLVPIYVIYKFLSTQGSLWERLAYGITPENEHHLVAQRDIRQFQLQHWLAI
row,SMILES,inhibition at 1 µM
1,"COc1ccccc1COc1ccc(C(CN2CCN(C)CC2)C2(O)CCCCC2)cc1Cl (centres unmarked) [Example 457, 1-[1-{3-chloro-4-[(2-methoxybenzyl)oxy]phenyl}-2-(4-methylpiperazin-1-yl)ethyl]cyclohexanol dihydrochloride]",77%
2,"C#Cc1cccc(C(CN2CCNCC2)C2(O)CCCCC2)c1 (centres unmarked) [Example 298, 1-[1-(3-ethynylphenyl)-2-piperazin-1-ylethyl]cyclohexanol dihydrochloride]",91%
3,"CCN1CCN(CC(c2ccc(OC(F)(F)F)cc2)C2(O)CCCCC2)CC1 (centres unmarked) [Example 287, 1-{2-(4-ethylpiperazin-1-yl)-1-[4-(trifluoromethoxy)phenyl]ethyl}cyclohexanol dihydrochloride]",60.8%
4,"CC(CCN1CCN(C[C@H](c2cccc(OC(F)(F)F)c2)C2(O)CCCCC2)CC1)c1ccccc1 (stereo partly drawn) [Example 347, 1-{(1S)-2-[4-(3-phenylbutyl)piperazin-1-yl]-1-[3-(trifluoromethoxy)phenyl]ethyl}cyclohexanol dihydrochloride]",92%
5,"CN1CCN(CC(c2ccc(OCc3ccccc3)c(Cl)c2)C2(O)CCCCC2)CC1 (centres unmarked) [Example 293, 1-[1-[4-(benzyloxy)-3-chlorophenyl]-2-(4-methylpiperazin-1-yl)ethyl]cyclohexanol dihydrochloride]",96%
6,"OC1(C(CN2CCNCC2)c2ccc(-c3ccccc3)cc2)CCCCC1 (centres unmarked) [Example 157, 1-[1-(1,1′-biphenyl-4-yl)-2-piperazin-1-ylethyl]cyclohexanol dihydrochloride]",54%
7,"C[C@@H]1CN(C[C@H](c2cccc(OC(F)(F)F)c2)C2(O)CCCCC2)C[C@H](C)N1C [Example 368, 1-{(1S)-1-[3-(trifluoromethoxy)phenyl]-2-[(3R,5S)-3,4,5-trimethylpiperazin-1-yl]ethyl}cyclohexanol dihydrochloride]",93%
8,"OC1(C(CN2CCN(CC3CCCCC3)CC2)c2ccc(Oc3ccccc3)cc2)CCCCC1 (centres unmarked) [Example 309, 1-[2-[4-(cyclohexylmethyl)piperazin-1-yl]-1-(4-phenoxyphenyl)ethyl]cyclohexanol dihydrochloride]",19.7%
9,"Oc1ccc(C(CN2CCNCC2)C2(O)CCCCC2)cc1OC(F)(F)F (centres unmarked) [Example 400, 4-[1-(1-hydroxycyclohexyl)-2-piperazin-1-ylethyl]-2-(trifluoromethoxy)phenol dihydrochloride]",38%
10,"COc1cc(C(CN2CCN(C)CC2)C2(O)CCCCC2)ccc1OCc1ccc(C(F)(F)F)cc1 (centres unmarked) [Example 449, 1-[1-(3-methoxy-4-{[4-(trifluoromethyl)benzyl]oxy}phenyl)-2-(4-methylpiperazin-1-yl)ethyl]cyclohexanol dihydrochloride]",88%
11,"OC1(C(CN2CCN(CC3CCCCC3)CC2)c2cccc(Oc3ccccc3)c2)CCCCC1 (centres unmarked) [Example 313, 1-[2-[4-(cyclohexylmethyl)piperazin-1-yl]-1-(3-phenoxyphenyl)ethyl]cyclohexanol dihydrochloride]",57.3%
12,"CN1CCN(CC(c2ccc(Oc3cccc4ccccc34)cc2)C2(O)CCCCC2)CC1 (centres unmarked) [Example 399, 1-{2-(4-methylpiperazin-1-yl)-1-[4-(1-naphthyloxy)phenyl]ethyl}cyclohexanol dihydrochloride]",17%
13,"C[C@H]1CN(C[C@H](c2cccc(OC(F)(F)F)c2)C2(O)CCCCC2)CCN1 [Example 348, 1-{(1S)-2-[(3S)-3-methylpiperazin-1-yl]-1-[3-(trifluoromethoxy)phenyl]ethyl}cyclohexanol dihydrochloride]",91%
14,"C#Cc1cccc(C(CN2CCN(C)CC2)C2(O)CCCCC2)c1 (centres unmarked) [Example 299, 1-[1-(3-ethynylphenyl)-2-(4-methylpiperazin-1-yl)ethyl]cyclohexanol dihydrochloride]",95%
15,"COc1cc(C(CN2CCN(C)CC2)C2(O)CCCCC2)ccc1OCc1ccccc1 (centres unmarked) [Example 443, 1-[1-[4-(benzyloxy)-3-methoxyphenyl]-2-(4-methylpiperazin-1-yl)ethyl]cyclohexanol dihydrochloride]",90%
16,"CN1CCN(CC(c2ccc(OCCc3ccccc3)c(Cl)c2)C2(O)CCCCC2)CC1 (centres unmarked) [Example 453, 1-[1-[3-chloro-4-(2-phenylethoxy)phenyl]-2-(4-methylpiperazin-1-yl)ethyl]cyclohexanol dihydrochloride]",82%

row,SMILES,inhibition at 1 µM
1,"NC1CCN(CC(c2cccc(-c3ccc(Cl)c(Cl)c3)c2)C2(O)CCCCC2)CC1 (centres unmarked) [Example 152, 1-[2-(4-aminopiperidin-1-yl)-1-(3′,4′-dichloro-1,1′-biphenyl-3-yl)ethyl]cyclohexanol dihydrochloride]",1%
2,"CN1CCN(CC(c2ccc(OCc3ccc(C(F)(F)F)cc3)cc2)C2(O)CCCCC2)CC1 (centres unmarked) [Example 437, 1-[2-(4-methylpiperazin-1-yl)-1-(4-{[4-(trifluoromethyl)benzyl]oxy}phenyl)ethyl]cyclohexanol dihydrochloride]",38%
3,"COc1ccc(-c2cccc(C(CN3CCNCC3)C3(O)CCCCC3)c2)cc1OC (centres unmarked) [Example 250, 1-[1-(3′,4′-dimethoxy-1,1′-biphenyl-3-yl)-2-piperazin-1-ylethyl]cyclohexanol dihydrochloride]",15%
4,"COc1cc(C(CN2CCNCC2)C2(O)CCCCC2)ccc1OCc1ccc2ccccc2c1 (centres unmarked) [Example 444, 1-{1-[3-methoxy-4-(2-naphthylmethoxy)phenyl]-2-piperazin-1-ylethyl}cyclohexanol dihydrochloride]",98%
5,"COc1cccc(COc2ccc(C(CN3CCN(C)CC3)C3(O)CCCCC3)cc2Cl)c1 (centres unmarked) [Example 455, 1-[1-{3-chloro-4-[(3-methoxybenzyl)oxy]phenyl}-2-(4-methylpiperazin-1-yl)ethyl]cyclohexanol dihydrochloride]",99%
6,"OC1([C@H](CN2CCNCC2)c2ccc(OCc3ccccc3)c(Cl)c2)CCCCC1 [Example 324, 1-{(1S)-1-[4-(benzyloxy)-3-chlorophenyl]-2-piperazin-1-ylethyl}cyclohexanol dihydrochloride]",98.4%
7,"N#Cc1cccc(-c2ccc(C(CN3CCNCC3)C3(O)CCCCC3)cc2)c1 (centres unmarked) [Example 168, 1-[1-(3′-cyano-1,1′-biphenyl-4-yl)-2-piperazin-1-ylethyl]cyclohexanol dihydrochloride]",66%
8,"COc1cc(C(CN2CCNCC2)C2(O)CCCCC2)ccc1OCc1ccc(Br)cc1F (centres unmarked) [Example 446, 1-(1-{4-[(4-bromo-2-fluorobenzyl)oxy]-3-methoxyphenyl}-2-piperazin-1-ylethyl)cyclohexanol]",69%
9,"OC1(C(CN2CCNCC2)c2ccc(-c3cc(Cl)cc(Cl)c3)cc2)CCC1 (centres unmarked) [Example 185, 1-[1-(3′,5′-dichloro-1,1′-biphenyl-4-yl)-2-piperazin-1-ylethyl]cyclobutanol dihydrochloride]",27%
10,"COc1cccc(-c2cccc(C(CN3CCNCC3)C3(O)CCCCC3)c2)c1 (centres unmarked) [Example 138, 1-[1-(3′-methoxy-1,1′-biphenyl-3-yl)-2-piperazin-1-ylethyl]cyclohexanol dihydrochloride]",44%
11,"OC1(C(CN2CCNCC2)c2ccc(OC(F)(F)F)cc2)CCC1 (centres unmarked) [Example 304, 1-{2-piperazin-1-yl-1-[4-(trifluoromethoxy)phenyl]ethyl}cyclobutanol dihydrochloride]",41%
12,"CN1CCN(CC(c2ccc(OCc3ccccc3)cc2)C2(O)CCCCC2)CC1 (centres unmarked) [Example 322, 1-[2-(4-Methyl-1-piperazinyl)-1-[4-phenylmethoxy)phenyl]ethyl]cyclohexanol dihydrochloride]",97.2%
13,"COc1ccc(C(CN2CCNCC2)C2(O)CCCCC2)cc1-c1ccccc1 (centres unmarked) [Example 254, 1-[1-(6-methoxy-1,1′-biphenyl-3-yl)-2-piperazin-1-ylethyl]cyclohexanol dihydrochloride]",29%
14,"C[C@@H]1CCC(O)(C(CN2CCN(C)CC2)c2cccc(OC(F)(F)F)c2)C1 (stereo partly drawn) [Example 395, (3R)-3-methyl-1-{2-(4-methylpiperazin-1-yl)-1-[3-(trifluoromethoxy)phenyl]ethyl}cyclopentanol dihydrochloride]",92%
15,"C[C@@H]1CN(CC(c2ccc(OC(F)(F)F)cc2)C2(O)CCCCC2)C[C@H](C)N1 (stereo partly drawn) [Example 288, 1-{2-[cis-3,5-dimethylpiperazin-1-yl]-1-[4(trifluoromethoxy)phenyl]ethyl}cyclohexanol dihydrochloride]",77.6%
16,"OC1(C(CN2CCNCC2)c2cccc(-c3ccc(Cl)c(Cl)c3)c2)CCCCC1 (centres unmarked) [Example 135, 1-[1-(3′,4′-dichloro-1,1′-biphenyl-3-yl)-2-piperazin-1-ylethyl]cyclohexanol dihydrochloride]",65%

# Same assay, conditions: 10 μM test compound (stated in the cell), [3H]NE uptake
row,SMILES,inhibition at 10 µM
1,"CN1CCN(CC(c2ccc(-c3cccc(OC(F)(F)F)c3)cc2)C2(O)CCC2)CC1 (centres unmarked) [Example 295, 1-{2-(4-methylpiperazin-1-yl)-1-[3′-(trifluoromethoxy)-1,1′-biphenyl-4-yl]ethyl}cyclobutanol dihydrochloride]",2%

# Same assay, conditions: MDCK-Net6, read-out: % Inhibition @ 1 μM (hNET), 1 μM test compound, [3H]NE uptake
row,SMILES,inhibition at 1 µM
1,"CN1CCN(C[C@H](c2cccc(OC(F)(F)F)c2)C2(O)CCCCC2)CC1 [Example 245, 1-{(1S)-2-(4-methylpiperazin-1-yl)-1-[3-(trifluoromethoxy)phenyl]ethyl}cyclohexanol dihydrochloride]",88%
2,"CN1CCN(CC(c2ccc(OC(F)(F)F)cc2)C2(O)CCCCC2)CC1 (centres unmarked) [Example 283, 1-{2-(4-methylpiperazin-1-yl)-1-[4-(trifluoromethoxy)phenyl]ethyl}cyclohexanol dihydrochloride]",70.7%

# Same assay, conditions: [3H]NE uptake, test range 1 to 10,000 nM
row,SMILES,EC50
1,"CN1CCN(C[C@H](c2ccc(OCc3ccccc3)cc2)C2(O)CCCCC2)CC1 [Example 411, 1-[(2S)-1-[4-(benzyloxy)phenyl]-2-(4-methylpiperazin-1-yl)ethyl]cyclohexanol dihydrochloride]",483 nM
2,"N#Cc1cccc(-c2ccc(C(CN3CCNCC3)C3(O)CCCCC3)cc2)c1 (centres unmarked) [Example 168, 1-[1-(3′-cyano-1,1′-biphenyl-4-yl)-2-piperazin-1-ylethyl]cyclohexanol dihydrochloride]",180 nM
3,"OC1(C(CN2CCNCC2)c2cccc(-c3ccc(Cl)c(Cl)c3)c2)CCCCC1 (centres unmarked) [Example 135, 1-[1-(3′,4′-dichloro-1,1′-biphenyl-3-yl)-2-piperazin-1-ylethyl]cyclohexanol dihydrochloride]",635 nM
